Source: patent US20230114728A1 (Venatorx Pharmaceuticals, Inc., priority 2019, published 2023)
≈ marks a conversion by molar mass, not a printed value.

Tests used:
Assay in all cases: Broth microdilution MIC in CAMHB
Assay type in all cases: cell-based
[1] = system: K. pneumoniae SI-117 producing VIM-1; conditions: Klebsiella pneumoniae, read-out: Minimum Inhibitory Concentration, K. pneumoniae SI-117
Summary of the method: (§1)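 Per CLSI broth microdilution, colonies were grown 3-5 h at 37° C in cation-adjusted Mueller Hinton broth, then diluted to a starting inoculum of 2-8×10^5 CFU/mL against 2-fold serial compound dilutions. Plates were incubated 16-20 h at 37° C, and MIC was read visually as the lowest concentration with no growth.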

A. baumannii ATCC 19606 = conditions: Acinetobacter baumannii, ATCC19606; MHB; read-out: Minimum Inhibitory Concentration, A. baumannii ATCC 19606
Summary of the method: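 CLSI microdilution; CAMHB; inoculum 2-8×10^5 CFU/mL from 3-5 h 37° C culture; 2-fold compound series; 16-20 h, 37° C; MIC = lowest well without visible growth.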

P. aeruginosa ATCC 35151 = conditions: Pseudomonas aeruginosa, ATCC35151; MHB; hyper-permeable strain; read-out: Minimum Inhibitory Concentration, P. aeruginosa ATCC 35151
Summary of the method: as §1

E. coli D22 = conditions: Escherichia coli; E. coli D22 (hyper-permeable); MHB; read-out: Minimum Inhibitory Concentration, E. coli D22
Summary of the method: as §1

E. coli AG100 = conditions: Escherichia coli; E. coli AG100 (wild-type parent); MHB; read-out: Minimum Inhibitory Concentration, E. coli AG100
Summary of the method: as §1

E. coli ATCC 25922 = conditions: Escherichia coli, ATCC25922; E. coli ATCC 25922; MHB; read-out: Minimum Inhibitory Concentration, E. coli 25922
Summary of the method: as §1

[2] = system: K. pneumoniae 848844 producing SHV-11 and KPC-2; conditions: Klebsiella pneumoniae, read-out: Minimum Inhibitory Concentration, K. pneumoniae 848844
Summary of the method: as §1

E. coli AG100A = conditions: Escherichia coli, read-out: Minimum Inhibitory Concentration, E. coli AG100A
Summary of the method: as §1

P. aeruginosa ATCC 27853 = conditions: Pseudomonas aeruginosa, ATCC27853; MHB; read-out: Minimum Inhibitory Concentration, P. aeruginosa ATCC 27853
Summary of the method: as §1

[3] = system: K. pneumoniae UMM producing SHV-5 and KPC-2; conditions: Klebsiella pneumoniae, read-out: Minimum Inhibitory Concentration, K. pneumoniae UMM
Summary of the method: as §1

[4] = system: P. aeruginosa (ΔmexAB-oprM); conditions: Pseudomonas aeruginosa, read-out: Minimum Inhibitory Concentration, P. aeruginosa ΔmexAB-OprM
Summary of the method: as §1

E. coli 901C = conditions: Escherichia coli; E. coli 901C (hyper-permeable); MHB; read-out: Minimum Inhibitory Concentration, E. coli 901C
Summary of the method: as §1

Row | Structure (SMILES) | MIC [1] [µg/mL] | MIC (A. baumannii ATCC 19606) [µg/mL] | MIC (P. aeruginosa ATCC 35151) [µg/mL] | MIC (E. coli D22) [µg/mL] | MIC (E. coli AG100) [µg/mL] | MIC (E. coli ATCC 25922) [µg/mL] | MIC [2] [µg/mL] | MIC (E. coli AG100A) [µg/mL] | MIC (P. aeruginosa ATCC 27853) [µg/mL] | MIC [3] [µg/mL] | MIC [4] [µg/mL] | MIC (E. coli 901C) [µg/mL]
1 | CCN1CCN(C(=O)NC(C(=O)N[C@H]2Cc3cccc(C(=O)O)c3OB2O)c2cc(F)c(O)cc2Cl)C(=O)C1=O (stereo partly drawn) [Example 103, (3R)-3-(2-(2-chloro-5-fluoro-4-hydroxyphenyl)-2-(4-ethyl-2,3-dioxopiperazine-1-carboxamido)acetamido)-2-hydroxy-3,4-dihydro-2H-benzo[e][1,2]oxaborinine-8-carboxylic acid] | > 128 | > 128 | 2 to 4 (≈ 3.47 to 6.94 µM) | 2 to 4 (≈ 3.47 to 6.94 µM) | 32 to 64 (≈ 55.5 to 111 µM) | 32 to 64 (≈ 55.5 to 111 µM) | > 128 | 2 to 4 (≈ 3.47 to 6.94 µM) | > 128 | 32 to 64 (≈ 55.5 to 111 µM) | 8 to 16 (≈ 13.9 to 27.7 µM) | < 0.25
2 | CCN1CCN(C(=O)N[C@H](C(=O)N[C@H]2Cc3cccc(C(=O)O)c3OB2O)c2ccc(C(=O)O)cc2Cl)C(=O)C1=O (single isomer, unassigned) [Example 152] | > 128 | > 128 | 0.5 to 1 (≈ 0.852 to 1.7 µM) | 8 to 16 (≈ 13.6 to 27.3 µM) | > 128 | > 128 | > 128 | 32 to 64 (≈ 54.5 to 109 µM) | > 128 | > 128 | 32 to 64 (≈ 54.5 to 109 µM) | 0.5 to 1 (≈ 0.852 to 1.7 µM)
3 | NCCN1CCN(C(=O)N[C@@H](C(=O)N[C@H]2Cc3cccc(C(=O)O)c3OB2O)c2c(F)cc(O)cc2F)C(=O)C1=O (single isomer, unassigned) [Example 111] | 8 to 16 (≈ 13.9 to 27.8 µM) | > 128 | 0.5 to 1 (≈ 0.869 to 1.74 µM) | 2 to 4 (≈ 3.48 to 6.95 µM) | 8 to 16 (≈ 13.9 to 27.8 µM) | 8 to 16 (≈ 13.9 to 27.8 µM) | 8 to 16 (≈ 13.9 to 27.8 µM) | 0.5 to 1 (≈ 0.869 to 1.74 µM) | > 128 | 8 to 16 (≈ 13.9 to 27.8 µM) | 8 to 16 (≈ 13.9 to 27.8 µM) | 0.5 to 1 (≈ 0.869 to 1.74 µM)
4 | NCCCN1CCN(C(=O)N[C@H](C(=O)N[C@H]2Cc3cccc(C(=O)O)c3OB2O)c2cccc(NS(N)(=O)=O)c2)C(=O)C1=O [Example 118, (R)-3-((S)-2-(4-(3-aminopropyl)-2,3-dioxopiperazine-1-carboxamido)-2-(3-(sulfamoylamino)phenyl)acetamido)-2-hydroxy-3,4-dihydro-2H-benzo[e][1,2]oxaborinine-8-carboxylic acid] | > 128 | > 128 | 0.5 to 1 (≈ 0.792 to 1.58 µM) | 8 to 16 (≈ 12.7 to 25.3 µM) | 32 to 64 (≈ 50.7 to 101 µM) | 32 to 64 (≈ 50.7 to 101 µM) | > 128 | 2 to 4 (≈ 3.17 to 6.33 µM) | > 128 | 32 to 64 (≈ 50.7 to 101 µM) | 8 to 16 (≈ 12.7 to 25.3 µM) | 2 to 4 (≈ 3.17 to 6.33 µM)
5 | NCCN1CCN(C(=O)N[C@H](C(=O)N[C@H]2Cc3cccc(C(=O)O)c3OB2O)c2cc(Cl)c(O)c(Cl)c2)C(=O)C1=O (single isomer, unassigned) [Example 165] | > 128 | > 128 | 0.5 to 1 (≈ 0.822 to 1.64 µM) | 32 to 64 (≈ 52.6 to 105 µM) | > 128 | > 128 | > 128 | 8 to 16 (≈ 13.2 to 26.3 µM) | > 128 | > 128 | 8 to 16 (≈ 13.2 to 26.3 µM) | 2 to 4 (≈ 3.29 to 6.58 µM)
6 | CCN1CCN(C(=O)NC(C(=O)N[C@H]2Cc3cccc(C(=O)O)c3OB2O)c2ccc(C(=O)O)cc2F)C(=O)C1=O (stereo partly drawn) [Example 145, (3R)-3-(2-(4-carboxy-2-fluorophenyl)-2-(4-ethyl-2,3-dioxopiperazine-1-carboxamido)acetamido)-2-hydroxy-3,4-dihydro-2H-benzo[e][1,2]oxaborinine-8-carboxylic acid] | > 128 | > 128 | < 0.25 | 2 to 4 (≈ 3.51 to 7.01 µM) | 32 to 64 (≈ 56.1 to 112 µM) | 32 to 64 (≈ 56.1 to 112 µM) | > 128 | 8 to 16 (≈ 14 to 28.1 µM) | > 128 | 32 to 64 (≈ 56.1 to 112 µM) | 8 to 16 (≈ 14 to 28.1 µM) | < 0.25
7 | NCCN1CCN(C(=O)N[C@H](C(=O)N[C@H]2Cc3cccc(C(=O)O)c3OB2O)c2cccc(NS(N)(=O)=O)c2)C(=O)C1=O (single isomer, unassigned) [Example 115] | > 128 | > 128 | 2 to 4 (≈ 3.24 to 6.48 µM) | 8 to 16 (≈ 13 to 25.9 µM) | > 128 | > 128 | > 128 | 8 to 16 (≈ 13 to 25.9 µM) | > 128 | > 128 | 8 to 16 (≈ 13 to 25.9 µM) | 2 to 4 (≈ 3.24 to 6.48 µM)
8 | CCN1CCN(C(=O)NC(C(=O)N[C@H]2Cc3cccc(C(=O)O)c3OB2O)c2c(F)cc(N)cc2F)C(=O)C1=O (stereo partly drawn) [Example 181, (3R)-3-(2-(4-amino-2,6-difluorophenyl)-2-(4-ethyl-2,3-dioxopiperazine-1-carboxamido)acetamido)-2-hydroxy-3,4-dihydro-2H-benzo[e][1,2]oxaborinine-8-carboxylic acid] | 32 to 64 (≈ 57.2 to 114 µM) | > 128 | 0.5 to 1 (≈ 0.894 to 1.79 µM) | 2 to 4 (≈ 3.58 to 7.15 µM) | 32 to 64 (≈ 57.2 to 114 µM) | 32 to 64 (≈ 57.2 to 114 µM) | > 128 | 2 to 4 (≈ 3.58 to 7.15 µM) | > 128 | 32 to 64 (≈ 57.2 to 114 µM) | 8 to 16 (≈ 14.3 to 28.6 µM) | < 0.25
9 | CCN1CCN(C(=O)N[C@H](C(=O)N[C@H]2Cc3cccc(C(=O)O)c3OB2O)c2cc(F)c(C(=O)O)cc2Cl)C(=O)C1=O (single isomer, unassigned) [Example 149] | > 128 | > 128 | 2 to 4 (≈ 3.31 to 6.61 µM) | 8 to 16 (≈ 13.2 to 26.5 µM) | > 128 | > 128 | > 128 | 32 to 64 (≈ 52.9 to 106 µM) | > 128 | > 128 | > 128 | 0.5 to 1 (≈ 0.827 to 1.65 µM)
10 | CCN1CCN(C(=O)N[C@H](C(=O)N[C@H]2Cc3cccc(C(=O)O)c3OB2O)c2ccc(C(=O)O)cc2O)C(=O)C1=O (single isomer, unassigned) [Example 143] | > 128 | > 128 | 2 to 4 (≈ 3.52 to 7.04 µM) | 8 to 16 (≈ 14.1 to 28.2 µM) | > 128 | > 128 | > 128 | 32 to 64 (≈ 56.3 to 113 µM) | > 128 | > 128 | > 128 | 0.5 to 1 (≈ 0.88 to 1.76 µM)
11 | CCN1CCN(C(=O)N[C@@H](C(=O)N[C@H]2Cc3cccc(C(=O)O)c3OB2O)c2ccc(C(=O)O)c(F)c2F)C(=O)C1=O (single isomer, unassigned) [Example 140] | > 128 | > 128 | < 0.25 | 2 to 4 (≈ 3.4 to 6.8 µM) | 32 to 64 (≈ 54.4 to 109 µM) | 32 to 64 (≈ 54.4 to 109 µM) | > 128 | 2 to 4 (≈ 3.4 to 6.8 µM) | > 128 | 32 to 64 (≈ 54.4 to 109 µM) | 8 to 16 (≈ 13.6 to 27.2 µM) | < 0.25
12 | NC1(CN2CCN(C(=O)NC(C(=O)N[C@H]3Cc4cccc(C(=O)O)c4OB3O)c3cccc(NS(N)(=O)=O)c3)C(=O)C2=O)CC1 (stereo partly drawn) [Example 120, (3R)-3-(2-(4-((1-aminocyclopropyl)methyl)-2,3-dioxopiperazine-1-carboxamido)-2-(3-(sulfamoylamino)phenyl)acetamido)-2-hydroxy-3,4-dihydro-2H-benzo[e][1,2]oxaborinine-8-carboxylic acid] | > 128 | > 128 | 0.5 to 1 (≈ 0.777 to 1.55 µM) | 8 to 16 (≈ 12.4 to 24.9 µM) | > 128 | > 128 | > 128 | 8 to 16 (≈ 12.4 to 24.9 µM) | > 128 | 32 to 64 (≈ 49.7 to 99.5 µM) | 8 to 16 (≈ 12.4 to 24.9 µM) | 2 to 4 (≈ 3.11 to 6.22 µM)
